According to PMC10715162 (Microbiology Spectrum, 2023):

Target: T1, F-ATP synthase subunit γ (in MsF1-αβγH65W) (Mycolicibacterium smegmatis, UniProt A0R201, H65W)
T1 construct: gene atpG; recombinant MsF1-αβγH65W complex; with F-ATP synthase subunits α and β
Assay: tryptophan fluorescence quenching titration
Assay type: binding

T1 sequence (A0R201 2-307 H65W): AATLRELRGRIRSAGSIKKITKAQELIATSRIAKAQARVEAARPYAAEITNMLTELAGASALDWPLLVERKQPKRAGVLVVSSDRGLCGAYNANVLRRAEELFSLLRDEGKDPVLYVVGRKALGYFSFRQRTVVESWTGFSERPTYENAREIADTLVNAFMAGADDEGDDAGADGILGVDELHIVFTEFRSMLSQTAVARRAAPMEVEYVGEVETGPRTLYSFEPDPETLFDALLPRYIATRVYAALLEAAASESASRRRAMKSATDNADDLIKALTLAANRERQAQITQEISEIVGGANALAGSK
T1 sequence (A0R202 2-548 partner): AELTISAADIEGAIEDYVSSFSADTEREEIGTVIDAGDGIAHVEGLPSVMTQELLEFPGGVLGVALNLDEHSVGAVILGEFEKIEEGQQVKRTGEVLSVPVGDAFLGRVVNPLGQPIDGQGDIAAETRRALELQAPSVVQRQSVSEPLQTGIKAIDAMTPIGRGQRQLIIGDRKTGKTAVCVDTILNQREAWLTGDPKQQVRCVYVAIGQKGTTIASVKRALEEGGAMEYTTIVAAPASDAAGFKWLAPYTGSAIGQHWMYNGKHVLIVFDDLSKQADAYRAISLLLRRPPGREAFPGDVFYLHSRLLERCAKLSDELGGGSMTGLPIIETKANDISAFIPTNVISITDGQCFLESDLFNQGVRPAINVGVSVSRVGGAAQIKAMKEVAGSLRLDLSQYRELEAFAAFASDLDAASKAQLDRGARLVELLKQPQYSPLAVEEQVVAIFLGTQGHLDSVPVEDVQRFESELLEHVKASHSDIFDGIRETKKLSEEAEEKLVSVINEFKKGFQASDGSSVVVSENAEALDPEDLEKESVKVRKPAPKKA
T1 sequence (A0R200 2-475 partner): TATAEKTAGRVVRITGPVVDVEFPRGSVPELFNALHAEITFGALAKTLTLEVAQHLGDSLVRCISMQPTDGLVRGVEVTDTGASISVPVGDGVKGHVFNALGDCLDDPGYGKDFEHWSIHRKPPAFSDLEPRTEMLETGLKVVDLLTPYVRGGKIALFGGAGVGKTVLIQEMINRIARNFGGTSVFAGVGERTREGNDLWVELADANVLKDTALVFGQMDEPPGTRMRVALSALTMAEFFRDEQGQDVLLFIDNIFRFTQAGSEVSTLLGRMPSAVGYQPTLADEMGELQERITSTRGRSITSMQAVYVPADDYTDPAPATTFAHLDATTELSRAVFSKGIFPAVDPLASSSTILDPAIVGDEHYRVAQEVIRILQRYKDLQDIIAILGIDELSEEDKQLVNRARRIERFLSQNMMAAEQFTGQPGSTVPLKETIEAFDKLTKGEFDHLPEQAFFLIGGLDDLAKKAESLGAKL

CCNc1cc(C)nc(Nc2ccc3nc(-c4ccc(Cl)cc4)[nH]c3c2)n1 [GaMF1.39]
Kd: 700 ± 90 nM
